Data as given in US20240352066A1, “ANTIMICROBIAL COMPOUNDS AND THE METHOD OF USE” (priority 2021, published 2024).
≈ marks a conversion by molar mass, not a printed value. Where two headings read alike, the source gives them in different places. Where a SMILES comes first, the peptide text is derived from it. [ ]: non-standard residue; d: D form. The star is where a group is joined. Gly(N(CH2)2(3-indolyl)) = O=C(O)CNCCc1c[nH]c2ccccc12; Gly(Nα-4-Cl-benzyl) = O=C(O)CNCc1ccc(Cl)cc1; N(4-Br-benzyl)Gly = O=C(O)CNCc1ccc(Br)cc1; N(2-thienylmethyl)Gly = O=C(O)CNCc1cccs1; N(tridecyl)Gly = CCCCCCCCCCCCCNCC(=O)O; NBzl(4-I)Gly = O=C(O)CNCc1ccc(I)cc1; Gly(N-2-aminoethyl) = NCCNCC(=O)O; NFurfurylGly = O=C(O)CNCc1ccco1; X2 = CCCCCCCCN(CCCCCCCC)CC(=O)*; Gly(N-cHex) = O=C(O)CNC1CCCCC1; X1 = CCCCCCN(CCCCCC)CC(=O)*; Nphe = O=C(O)CNCc1ccccc1; Nlys = NCCCCNCC(=O)O; Sar = CNCC(=O)O

Assays:
C. neoformans [1] = experiment: microbe, parasite or virus in culture; assay type: cell-based, Cryptococcus neoformans
Procedure: Cell solution was diluted into RPMI-MOPS (1:100) followed by another dilution into RPMI-MOPS (1:20). […] Plates were incubated for 72 hours at 35° C. MIC was determined as the lowest concentration of individual compound or combined compounds inhibiting pathogen growth. Fractional inhibitory concentration index (FICi) was determine using the following equation: FICi values were interpreted as follows: FICi<0.5 synergistic; 0.5≤FICi≤4 indifferent; FICi>4 antagonist (Johnson et al., Antimicrob. Agents Chemother. 48, 693-715 (2004)).

[2] = Mammalian cytotoxicity, MTT, HepG2; assay type: cell-based, human; conditions: human, HepG2 hepatocellular carcinoma cells
Procedure: Hepatocellular carcinoma (HepG2), mouse fibroblast (3T3), human lung (HPL1A), and human keratinocyte (HaCat) cells were cultured in Dulbecco modified eagle media (DMEM) containing 10% fetal bovine serum (FBS) and 1% penicillin, streptomycin, and glutamine (PSG) at 37° C. and 5% CO2. Cells were collected and adjusted to […] to 4×10^5 cells/mL in phenol-red free DMEM and plated (100 μL) 96 well plates. 2-fold serial dilutions of 10× peptoid (11.1 μL) were added to each well in triplicate. Water (vehicle) was used as a negative control. Plates were incubated at 37° C. in 5% CO2 for 72 hours. Thiazolyl blue tetrazolium bromide (MTT) was added to each well (5 mg/mL; 20 μL) and incubated for 3 hours. Media was removed, DMSO (100 μL) was added, and plates were incubated at 37° C. for 10 minutes. Plates were read on a SpectraMax M5 plate reader (Abs. 570 nm). The concentration of compound resulting in a 50% reduction in growth compared to control (toxicity dose 50%; TD50) was determined using GraFit. This procedure was repeated three times on separate days.
Cytotoxicity against HepG2 hepatocellular carcinoma cells was done as previously described (Green et al. ACS infectious diseases, (2022); Corson et al. ACS medicinal chemistry letters 7 12, 1139-1144 (2016)). HepG2 cells were maintained in culture in T-75 flasks using Dulbecco's Modified Eagle's Media (DMEM) with phenol red pH indicator and supplemented with 10% fetal bovine serum (FBS) and 1% penicillin, streptomycin, and glutamine (PSG). The cells were incubated at 37° C. and 5% CO2 in a humidified incubator until desired confluency was achieved. The media was removed from the flask, and the cells were washed 1× with 10 mL of phosphate-buffered saline (PBS; 11.8 mM phosphate, 140.4 mM NaCl; pH 7.4) which was then discarded. To remove the adhered cells from the flask, 2 mL of trypsin was added, and the cells were incubated for 10 minutes. To quench the trypsin, 8 mL of phenol red-free DMEM with 10% FBS and 1% PGS was added, and the cell solution was transferred to a 15 mL conical tube. After the cells were pelleted by centrifugation at 1000 rpm for 5 minutes, the supernatant was poured off and cells resuspended in the volume of phenol red-free media needed for the assay. Cell concentration was determined by counting with a hemocytometer, and the solution was diluted with media until a concentration of 1×10^5 cells/mL was achieved. A 100 μL aliquot of cell solution was added to each well of a 96-well plate, apart from the 3 wells used for a media control. Cells were incubated for 2-3 hours at 37° C. and 5% CO2 until cells were adherent.
Compound stocks of 20 mg/mL were used to prepare 2-fold serial dilutions of each compound in sterile water, giving final concentrations of 200, 100, 50, 25, 12.5, 6.25, 3.13 and 1.56 μg/mL. 11.1 μL of prepared compound solutions was added to the appropriate wells in triplicate. A negative vehicle control of sterile water, as well as the aforementioned media control, were used. The plates were incubated for 72 hours at 37° C. and 5% CO2. After incubation, 20 μL of 5 mg/mL 3-(4,5-dimethylthiazol-2-yl)-2,5-diphenyltetrazolium bromide (MTT) in water was added to each well. The plate was incubated for 3 hours at 37° C. and 5% CO2. Media was removed from each well using a sterile glass Pasteur pipette. 100 μL of DMSO was added to each well and incubated for 15 minutes at 37° C. Absorbance was read at 570 nm using a SpectraMax M5 Plate Reader. This MTT assay was performed in biological duplicate unless discrepant results were observed. If this was the case, the assay was performed in biological triplicate for further verification. The reported value is the average of biological replicates with standard deviation.

C. neoformans [3] = assay type: cell-based, Cryptococcus neoformans; conditions: 72 h
Procedure: The minimum inhibitory concentration (MIC) of peptoids against fungal pathogens C. albicans and C. neoformans was determined following CLSI guidelines (CLSI. Reference method for broth dilution antifungal susceptibility testing of yeasts; approved standard-third edition; CLSI document M27-A3. (Clinical and Laboratory Standards Institute, 2008). […] This inoculant was diluted 1:100 into RPMI-MOPS and then further diluted 1:20 into RPMI-MOPS. 198 μL of inoculant was seeded into each well of a 96 well black-walled plate. 2-fold serial dilutions of 100× peptoid solutions were prepared in water and 2 μL of peptoid were added to each well in triplicate. […] MIC was defined as the lowest concentration of compound preventing fungal growth. This assay was repeated 3 times on separate days with each compound. […] The addition of 0.1 mL cell solution to 9.9 mL of RPMI-MOPS produced a 1:100 cell solution. After vortexing, 0.5 mL of the […] was added to 9.5 mL RPMI-MOPS to produce a 1:20 cell solution. 198 μL of the 1:20 solution was added to the wells of an opaque 96-well plate, apart from the wells designated for the medial control. […] Amphotericin B was used as a positive control, and sterile water was used for the vehicle control. The plates were incubated for 72 hours at 35° C. After incubation, the concentration of compound resulting in no visual growth was recorded as the MIC. All assays performed in biological triplicate on different days.

SMILES	CC50 at 72 h [2] [µg/mL]	C. neoformans MIC (C. neoformans [3]) [µg/mL]	other results
C[C@@H]1[C@H](O)[C@@H](C)/C=C/C=C/C=C/C=C/C=C/C=C/C=C/[C@H](O[C@@H]2O[C@H](C)[C@@H](O)[C@H](N)[C@@H]2O)C[C@@H]2O[C@](O)(C[C@@H](O)C[C@@H](O)[C@H](O)CC[C@@H](O)C[C@@H](O)CC(=O)O[C@H]1C)C[C@H](O)[C@H]2C(=O)O [Amphotericin B]			interpretation of combination with RMG8-8 (C. neoformans [1]; FICi<0.5 synergistic, 0.5≤FICi≤4 indifferent, FICi>4 antagonist): mild additive effect; Combination MIC RMG8-8:Drug, RMG8-8 part (C. neoformans [1]; RMG8-8 concentration in combination with the named drug): 0.8 µg/mL; MIC (compound alone) (C. neoformans [1]; checkerboard, 72 hours at 35° C.): 0.25 µg/mL; Combination MIC RMG8-8:Drug, Drug part (C. neoformans [1]; drug concentration in combination with RMG8-8): 0.06 µg/mL; FICi (C. neoformans [1]; named drug in combination with RMG8-8): 0.75
CCCCCCCCCCCCCNCC(=O)N(CC(=O)N(CCCCN)CC(=O)N(CCCCN)CC(=O)N(CC(N)=O)C1CCCCC1)C1CCCCC1 [Compound 2] (H-[N(tridecyl)Gly][Gly(N-cHex)][Nlys][Nlys][Gly(N-cHex)]-NH2)	165 ± 97 (≈ 208 µM)	3.13	
CCCCCCN(CCCCCC)CC(=O)N(CC(=O)N(CCCCN)CC(=O)N(CCN)CC(=O)N(CC(N)=O)C1CCCCC1)C1CCCCC1 [Compound 6] (X1-[Gly(N-cHex)][Nlys][Gly(N-2-aminoethyl)][Gly(N-cHex)]-NH2)		100	CC50 at 72 h ([2]; Example 2, 72 hours, MTT, read-out: HepG2 TD50): > 200 µg/mL
CCCCCCCCN(CCCCCCCC)CC(=O)N(CC(=O)N(CCCCN)CC(=O)N(CCN)CC(=O)N(CC(N)=O)C1CCCCC1)C1CCCCC1 [Compound 7] (X2-[Gly(N-cHex)][Nlys][Gly(N-2-aminoethyl)][Gly(N-cHex)]-NH2)	162 ± 29 (≈ 201 µM)	6.25	
CCCCCCCCCCCCCNCC(=O)N(CC(=O)N(CCCCN)CC(=O)N(CCN)CC(=O)N(CC(N)=O)Cc1ccccc1)Cc1ccccc1 [Compound 15] (H-[N(tridecyl)Gly][Nphe][Nlys][Gly(N-2-aminoethyl)][Nphe]-NH2)	145 ± 96 (≈ 186 µM)	1.56 to 3.13	
CCCCCCCCCCCCCNCC(=O)N(CC(=O)N(CCCCN)CC(=O)N(CCN)CC(=O)N(CC(N)=O)Cc1ccc(Cl)cc1)Cc1ccc(Cl)cc1 [Compound 18] (H-[N(tridecyl)Gly][Gly(Nα-4-Cl-benzyl)][Nlys][Gly(N-2-aminoethyl)][Gly(Nα-4-Cl-benzyl)]-NH2)	71.8 ± 24 (≈ 84.7 µM)	3.13	
CCCCCCCCCCCCCNCC(=O)N(CC(=O)N(CCCCN)CC(=O)N(CCN)CC(=O)N(CC(N)=O)Cc1ccc(Br)cc1)Cc1ccc(Br)cc1 [Compound 19] (H-[N(tridecyl)Gly][N(4-Br-benzyl)Gly][Nlys][Gly(N-2-aminoethyl)][N(4-Br-benzyl)Gly]-NH2)	72.4 ± 20 (≈ 77.3 µM)	3.13	
CCCCCCCCCCCCCNCC(=O)N(CC(=O)N(CCCCN)CC(=O)N(CCN)CC(=O)N(CC(N)=O)Cc1ccc(I)cc1)Cc1ccc(I)cc1 [Compound 20] (H-[N(tridecyl)Gly][NBzl(4-I)Gly][Nlys][Gly(N-2-aminoethyl)][NBzl(4-I)Gly]-NH2)	72.2 ± 24 (≈ 70 µM)	6.25	
CCCCCCCCCCCCCNCC(=O)N(CC(=O)N(CCCCN)CC(=O)N(CCN)CC(=O)N(CC(N)=O)c1cccc2ccccc12)c1cccc2ccccc12 [Compound 21]	118 ± 19 (≈ 139 µM)	6.25	
CCCCCCCCCCCCCNCC(=O)N(CC(=O)N(CCCCN)CC(=O)N(CCN)CC(=O)N(CC(N)=O)c1ccc2c(c1)CCC2)c1ccc2c(c1)CCC2 [Compound 22]	91 ± 4 (≈ 109 µM)	1.56 to 3.13	
CCCCCCCCCCCCCNCC(=O)N(CCc1c[nH]c2ccccc12)CC(=O)N(CCCCN)CC(=O)N(CCN)CC(=O)N(CCc1c[nH]c2ccccc12)CC(N)=O [Compound 23] (H-[N(tridecyl)Gly][Gly(N(CH2)2(3-indolyl))][Nlys][Gly(N-2-aminoethyl)][Gly(N(CH2)2(3-indolyl))]-NH2)	85 ± 10 (≈ 96 µM)	1.56 to 3.13	
CCCCCCCCCCCCCNCC(=O)N(CC(=O)N(CCCCN)CC(=O)N(CCN)CC(=O)N(CC(N)=O)Cc1ccco1)Cc1ccco1 [Compound 24] (H-[N(tridecyl)Gly][NFurfurylGly][Nlys][Gly(N-2-aminoethyl)][NFurfurylGly]-NH2)	143 ± 94 (≈ 188 µM)	3.13 to 6.25	
CCCCCCCCCCCCCNCC(=O)N(CC(=O)N(CCCCN)CC(=O)N(CCN)CC(=O)N(CC(N)=O)Cc1cccs1)Cc1cccs1 [Compound 25] (H-[N(tridecyl)Gly][N(2-thienylmethyl)Gly][Nlys][Gly(N-2-aminoethyl)][N(2-thienylmethyl)Gly]-NH2)	154 ± 47 (≈ 195 µM)	1.56 to 3.13	
CNCC(=O)N(CC(=O)N(CCCCN)CC(=O)N(CCN)CC(=O)N(CC(N)=O)C1CCCCC1)C1CCCCC1 [Position 1] (H-[Sar][Gly(N-cHex)][Nlys][Gly(N-2-aminoethyl)][Gly(N-cHex)]-NH2)	> 200		MIC C. neoformans (C. neoformans [3]): >50.00 µg/mL
CCCCCCCCCCCCCNCC(=O)N(C)CC(=O)N(CCCCN)CC(=O)N(CCN)CC(=O)N(CC(N)=O)C1CCCCC1 [Position 2] (H-[N(tridecyl)Gly][Sar][Nlys][Gly(N-2-aminoethyl)][Gly(N-cHex)]-NH2)	> 200		MIC C. neoformans (C. neoformans [3]): 6.25 µg/mL (≈ 8.99 µM)
CCCCCCCCCCCCCNCC(=O)N(CC(=O)N(C)CC(=O)N(CCN)CC(=O)N(CC(N)=O)C1CCCCC1)C1CCCCC1 [Position 3]	83 (≈ 118 µM)		MIC C. neoformans (C. neoformans [3]): 3.13 µg/mL (≈ 4.43 µM)
CCCCCCCCCCCCCNCC(=O)N(CC(=O)N(CCCCN)CC(=O)N(C)CC(=O)N(CC(N)=O)C1CCCCC1)C1CCCCC1 [Position 4] (H-[N(tridecyl)Gly][Gly(N-cHex)][Nlys][Sar][Gly(N-cHex)]-NH2)	84 (≈ 114 µM)		MIC C. neoformans (C. neoformans [3]): 3.13 µg/mL (≈ 4.26 µM)
CCCCCCCCCCCCCNCC(=O)N(CC(=O)N(CCCCN)CC(=O)N(CCN)CC(=O)N(C)CC(N)=O)C1CCCCC1 [Position 5] (H-[N(tridecyl)Gly][Gly(N-cHex)][Nlys][Gly(N-2-aminoethyl)][Sar]-NH2)	> 200		MIC C. neoformans (C. neoformans [3]): 6.25 µg/mL (≈ 8.99 µM)
